The subject of this assay is Phytophthora infestans. Kind of assay: microbe, parasite or virus in culture. The format is cell-based. Particulars: in Secale cereale, 168 h, read-out: control compared to the untreated check.
As for `CSc1nccnc1OCC(=O)N1CCC(c2nc(C3=NOC(c4c(Cl)cccc4Cl)C3)cs2)CC1` (stereo not drawn) [Compound 148, 1-(4-(4-(5-(2,6-dichlorophenyl)-4,5-dihydroisoxazol-3-yl)thiazol-2-yl)piperidin-1-yl)-2-((3-(methylthio)pyrazin-2-yl)oxy)ethan-1-one], the inhibition of growth at 30 ppm is at least 70%. Consider `CS(=O)(=O)c1nccnc1OCC(=O)N1CCC(c2nc(C3=NOC(c4c(F)cccc4F)C3)cs2)CC1` (stereo not drawn) [Compound 157, 1-(4-(4-(5-(2,6-difluorophenyl)-4,5-dihydroisoxazol-3-yl)thiazol-2-yl)piperidin-1-yl)-2-((3-(methylsulfonyl)pyrazin-2-yl)oxy)ethan-1-one], for which the inhibition of growth at 30 ppm is at least 70%. The figure for `O=C(COc1nccc(C(F)(F)F)n1)N1CCC(c2nc(C3=NOC(c4c(Cl)cc(Cl)cc4Cl)C3)cs2)CC1` (stereo not drawn) [Compound 49, 1-(4-(4-(5-(2,4,6-trichlorophenyl)-4,5-dihydroisoxazol-3-yl)thiazol-2-yl)piperidin-1-yl)-2-((4-(trifluoromethyl)pyrimidin-2-yl)oxy)ethan-1-one] is at least 70%; for `COc1cncnc1OCC(=O)N1CCC(c2nc(C3=NOC(c4c(Cl)cc(Cl)cc4Cl)C3)cs2)CC1` (stereo not drawn) [Compound 75, 2-((5-methoxypyrimidin-4-yl)oxy)-1-(4-(4-(5-(2,4,6-trichlorophenyl)-4,5-dihydroisoxazol-3-yl)thiazol-2-yl)piperidin-1-yl)ethan-1-one] it is at least 70%. In the case of `COc1cncnc1OCC(=O)N1CCC(c2nc(C3=NOC(c4c(Cl)cccc4Cl)C3)cs2)CC1` (stereo not drawn) [Compound 73, 1-(4-(4-(5-(2,6-dichlorophenyl)-4,5-dihydroisoxazol-3-yl)thiazol-2-yl)piperidin-1-yl)-2-((5-methoxypyrimidin-4-yl)oxy)ethan-1-one] it was at least 70%.

Regarding `COc1nccnc1OCC(=O)N1CCC(c2csc(C3=NOC(c4c(F)cccc4Cl)C3)n2)CC1` (stereo not drawn) [Compound 97, 1-(4-(2-(5-(2-chloro-6-fluorophenyl)-4,5-dihydroisoxazol-3-yl)thiazol-4-yl)piperidin-1-yl)-2-((3-methoxypyrazin-2-yl)oxy)ethan-1-one], the inhibition of growth at 30 ppm is at least 70%. As for `COc1cncc(OCC(=O)N2CCC(c3nc(C4=NOC(c5c(F)cccc5Cl)C4)cs3)CC2)n1` (stereo not drawn) [Compound 101, 1-(4-(4-(5-(2-chloro-6-fluorophenyl)-4,5-dihydroisoxazol-3-yl)thiazol-2-yl)piperidin-1-yl)-2-((6-methoxypyrazin-2-yl)oxy)ethan-1-one], the inhibition of growth at 30 ppm was at least 70%. As for `COc1nc(OC)nc(OCC(=O)N2CCC(c3nc(C4=NOC(c5c(Cl)cccc5C(F)(F)F)C4)cs3)CC2)n1` (stereo not drawn) [Compound 105, 1-(4-(4-(5-(2-chloro-6-(trifluoromethyl)phenyl)-4,5-dihydroisoxazol-3-yl)thiazol-2-yl)piperidin-1-yl)-2-((4,6-dimethoxy-1,3,5-triazin-2-yl)oxy)ethan-1-one], the inhibition of growth at 30 ppm was at least 70%.

As for `COc1ncc(OCC(=O)N2CCC(c3nc(C4=NOC(c5c(Cl)cccc5C(F)(F)F)C4)cs3)CC2)cn1` (stereo not drawn) [Compound 137, 1-(4-(4-(5-(2-chloro-6-(trifluoromethyl)phenyl)-4,5-dihydroisoxazol-3-yl)thiazol-2-yl)piperidin-1-yl)-2-((2-methoxypyrimidin-5-yl)oxy)ethan-1-one], the inhibition of growth at 30 ppm was at least 70%.

`O=C(COc1nccc(C(F)(F)F)n1)N1CCC(c2nc(C3=NOC(c4c(Cl)ccc(F)c4F)C3)cs2)CC1` (stereo not drawn) [Compound 70, 1-(4-(4-(5-(6-chloro-2,3-difluorophenyl)-4,5-dihydroisoxazol-3-yl)thiazol-2-yl)piperidin-1-yl)-2-((4-(trifluoromethyl)pyrimidin-2-yl)oxy)ethan-1-one]: the inhibition of growth at 30 ppm was at least 70%. The figure for `O=C(COc1cnc(C(F)(F)F)cn1)N1CCC(c2nc(C3=NOC(c4c(Cl)cccc4Cl)C3)cs2)CC1` (stereo not drawn) [Compound 88, 1-(4-(4-(5-(2,6-dichlorophenyl)-4,5-dihydroisoxazol-3-yl)thiazol-2-yl)piperidin-1-yl)-2-((5-(trifluoromethyl)pyrazin-2-yl)oxy)ethan-1-one] is at least 70%. Take `N#Cc1cccc(Cl)c1C1CC(c2csc(C3CCN(C(=O)COc4cncc(C(F)(F)F)n4)CC3)n2)=NO1` (stereo not drawn) [Compound 56, 3-chloro-2-(3-(2-(1-(2-((6-(trifluoromethyl)pyrazin-2-yl)oxy)acetyl)piperidin-4-yl)thiazol-4-yl)-4,5-dihydroisoxazol-5-yl)benzonitrile]: the inhibition of growth at 30 ppm was at least 70%. As for `O=C(COc1cncc(C(F)(F)F)n1)N1CCC(c2nc(C3=NOC(c4c(Cl)ccc(F)c4F)C3)cs2)CC1` (stereo not drawn) [Compound 61, 1-(4-(4-(5-(6-chloro-2,3-difluorophenyl)-4,5-dihydroisoxazol-3-yl)thiazol-2-yl)piperidin-1-yl)-2-((6-(trifluoromethyl)pyrazin-2-yl)oxy)ethan-1-one], the inhibition of growth at 30 ppm is at least 70%.

`CSc1nccnc1OCC(=O)N1CCC(c2nc(C3=NOC(c4c(Cl)cccc4C#N)C3)cs2)CC1` (stereo not drawn) [Compound 146, 3-chloro-2-(3-(2-(1-(2-((3-(methylthio)pyrazin-2-yl)oxy)acetyl)piperidin-4-yl)thiazol-4-yl)-4,5-dihydroisoxazol-5-yl)benzonitrile]: the inhibition of growth at 30 ppm is at least 70%. As to `COc1nccnc1OCC(=O)N1CCC(c2nc(C3=NOC(c4c(Cl)cccc4Cl)C3)cs2)CC1` (stereo not drawn) [Compound 30, 1-(4-(4-(5-(2,6-dichlorophenyl)-4,5-dihydroisoxazol-3-yl)thiazol-2-yl)piperidin-1-yl)-2-((3-methoxypyrazin-2-yl)oxy)ethan-1-one], the inhibition of growth at 30 ppm was at least 70%.

Take `O=C(COc1nccc(C(F)(F)F)n1)N1CCC(c2nc(C3=NOC(c4c(F)cccc4Br)C3)cs2)CC1` (stereo not drawn) [Compound 52, 1-(4-(4-(5-(2-bromo-6-fluorophenyl)-4,5-dihydroisoxazol-3-yl)thiazol-2-yl)piperidin-1-yl)-2-((4-(trifluoromethyl)pyrimidin-2-yl)oxy)ethan-1-one]: the inhibition of growth at 30 ppm is at least 70%. As to `O=C(COc1cc(C(F)(F)F)ncn1)N1CCC(c2nc(C3=NOC(c4c(Cl)cc(Cl)cc4Cl)C3)cs2)CC1` (stereo not drawn) [Compound 11, 1-(4-(4-(5-(2,4,6-trichlorophenyl)-4,5-dihydroisoxazol-3-yl)thiazol-2-yl)piperidin-1-yl)-2-((6-(trifluoromethyl)pyrimidin-4-yl)oxy)ethan-1-one], the inhibition of growth at 30 ppm was at least 70%. Regarding `CS(=O)(=O)Oc1cccc(Cl)c1C1CC(c2csc(C3CCN(C(=O)COc4cncc(C(F)(F)F)n4)CC3)n2)=NO1` (stereo not drawn) [Compound 57, 3-chloro-2-(3-(2-(1-(2-((6-(trifluoromethyl)pyrazin-2-yl)oxy)acetyl)piperidin-4-yl)thiazol-4-yl)-4,5-dihydroisoxazol-5-yl)phenyl methanesulfonate], the inhibition of growth at 30 ppm was at least 70%.

Turning to `O=C(COc1nccc(C(F)(F)F)n1)N1CCC(c2nc(C3=NOC(c4c(F)cccc4F)C3)cs2)CC1` (stereo not drawn) [Compound 50, 1-(4-(4-(5-(2,6-difluorophenyl)-4,5-dihydroisoxazol-3-yl)thiazol-2-yl)piperidin-1-yl)-2-((4-(trifluoromethyl)pyrimidin-2-yl)oxy)ethan-1-one], the inhibition of growth at 30 ppm is at least 70%. For the compound `COc1ccnc(OCC(=O)N2CCC(c3nc(C4=NOC(c5c(Cl)ccc(F)c5F)C4)cs3)CC2)n1` (stereo not drawn) [Compound 63, 1-(4-(4-(5-(6-chloro-2,3-difluorophenyl)-4,5-dihydroisoxazol-3-yl)thiazol-2-yl)piperidin-1-yl)-2-((4-methoxypyrimidin-2-yl)oxy)ethan-1-one], the inhibition of growth at 30 ppm was at least 70%.

Take `O=C(COc1nccc(C(F)(F)F)n1)N1CCC(c2nc(C3=NOC(c4c(O)cccc4Cl)C3)cs2)CC1` (stereo not drawn) [Compound 85, 1-(4-(4-(5-(2-chloro-6-hydroxyphenyl)-4,5-dihydroisoxazol-3-yl)thiazol-2-yl)piperidin-1-yl)-2-((4-(trifluoromethyl)pyrimidin-2-yl)oxy)ethan-1-one]: the inhibition of growth at 30 ppm is at least 70%. Consider `CS(=O)(=O)Oc1ccc(F)c2c1COC(c1csc(C3CCN(C(=O)COc4ccnc(C(F)(F)F)n4)CC3)n1)OC2` (stereo not drawn) [Compound 156, 9-fluoro-3-(2-(1-(2-((2-(trifluoromethyl)pyrimidin-4-yl)oxy)acetyl)piperidin-4-yl)thiazol-4-yl)-1,5-dihydrobenzo[e][1,3]dioxepin-6-yl methanesulfonate], for which the inhibition of growth at 30 ppm was at least 70%. For the compound `CSc1nccnc1OCC(=O)N1CCC(c2nc(C3=NOC(c4c(Cl)ccc(F)c4F)C3)cs2)CC1` (stereo not drawn) [Compound 147, 1-(4-(4-(5-(6-chloro-2,3-difluorophenyl)-4,5-dihydroisoxazol-3-yl)thiazol-2-yl)piperidin-1-yl)-2-((3-(methylthio)pyrazin-2-yl)oxy)ethan-1-one], the inhibition of growth at 30 ppm is at least 70%.

For the compound `COc1cncc(OCC(=O)N2CCC(c3nc(C4=NOC(c5c(F)cccc5F)C4)cs3)CC2)n1` (stereo not drawn) [Compound 119, 1-(4-(4-(5-(2,6-difluorophenyl)-4,5-dihydroisoxazol-3-yl)thiazol-2-yl)piperidin-1-yl)-2-((6-methoxypyrazin-2-yl)oxy)ethan-1-one], the inhibition of growth at 30 ppm is at least 70%. On to `CS(=O)(=O)Oc1ccc(F)c2c1COC(c1csc(C3CCN(C(=O)COc4nccnc4C(F)(F)F)CC3)n1)OC2` (stereo not drawn) [Compound 154, 9-fluoro-3-(2-(1-(2-((3-(trifluoromethyl)pyrazin-2-yl)oxy)acetyl)piperidin-4-yl)thiazol-4-yl)-1,5-dihydrobenzo[e][1,3]dioxepin-6-yl methanesulfonate], for which the inhibition of growth at 30 ppm is at least 70%.

For the compound `N#Cc1ccnc(OCC(=O)N2CCC(c3nc(C4=NOC(c5c(F)cccc5Br)C4)cs3)CC2)n1` (stereo not drawn) [Compound 117, 2-(2-(4-(4-(5-(2-bromo-6-fluorophenyl)-4,5-dihydroisoxazol-3-yl)thiazol-2-yl)piperidin-1-yl)-2-oxoethoxy)pyrimidine-4-carbonitrile], the inhibition of growth at 30 ppm is at least 70%. For `N#Cc1ccnc(OCC(=O)N2CCC(c3nc(C4=NOC(c5cc(Cl)ccc5Cl)C4)cs3)CC2)n1` (stereo not drawn) [Compound 152, 2-(2-(4-(4-(5-(2,5-dichlorophenyl)-4,5-dihydroisoxazol-3-yl)thiazol-2-yl)piperidin-1-yl)-2-oxoethoxy)pyrimidine-4-carbonitrile], the inhibition of growth at 30 ppm is at least 70%.

The values are drawn from US12471596B2 (priority 2019, dated 2025).
